Reference: patent US9822344B2, “Method for culturing pluripotent stem cells” (OSAKA UNIVERSITY, priority 2012, dated 2017)

Columns and labels:
Assay type in all cases: cell-based, human
[1] = test system: iPS cells; test: Rac-1 inhibitor added in culture on SNL feeder cells; conditions: Rac-1 inhibitor 50 or 100 μM added at day 3, same as without inhibitor
Description: Culture was performed by using SNL feeder cells as the feeder cells and adding the Rac-1 inhibitor (50 or 100 μM) at three days after the culture start (day 3).

[2] = test system: iPS cells: Tic (Np 39); test: Influences of feeder-free culture on iPS cells: Rac-1 inhibitor added; conditions: Rac-1 inhibitor 100 or 150 μM at day 3 (FIG. 19: 150 μM), Synthemax Surface
Description: (§1) Synthemax Surface (trade name, manufactured by Corning Inc.) was used as a culture surface, and iPS cells were seeded thereover. The culture medium was exchanged with a maintenance medium every 24 hours until day 7. After the culture, the expression of Oct3/4 of the cultured cells was confirmed by immunocytostaining, and DAPI staining was performed. The used cells and media, as well as the culture conditions are as follows.
mTeSR (Trade Mark) 1 medium (trade name, manufactured by STEMCELL, Technologies)
Next, cells were cultured and observed in the same manner as those described above except that the Rac-1 inhibitor was added at 100 or 150 μM at three days after the start of the culture (day 3). Micrographs obtained are illustrated in FIG. 19. FIG. 19 illustrates micrographs obtained in the case where the Rac-1 inhibitor was 150 μM.

[3] = test system: iPS cells: Tic (Np 39); test: Influences of feeder cells on iPS cells: Rac-1 inhibitor added in culture on MEF feeder cells; conditions: Rac-1 inhibitor 50, 100, or 150 μM added at day 3, outer edge part without inhibitor
Description: as §1, with “On feeder cells,” for “Synthemax Surface (trade name, manufactured by Corning Inc.) was used as a culture surface, and”, “seeded, and the” for “seeded thereover. The”
iPS cells: Repro Stem (trade name, manufactured by ReproCELL J, Inc.), 5 ng/mL FGF-2
Micrographs obtained are illustrated in FIG. 17.
Next, cells were cultured and observed in the same manners as those described above except that a Rac-1 inhibitor (trade name: NSC23766, Calbiochem brand), which is a migration inhibitor, was added at 50, 100, or 150 μM at three days after the start of the culture (day 3). The obtained micrographs are illustrated in FIG. 17.
Dilution of Rac-1 inhibitor: the Rac-1 inhibitor was diluted by using a medium (Repro Stem) (final concentration: 50 or 100 μM).
Further, bFGF (trade name, manufactured by ReproCELL, Inc., final concentration 5 ng/ml) was added thereto, and the Rac-1 inhibitor thus diluted was added to iPS cells.

Structure (SMILES): CCN(CC)CCCC(C)Nc1nc(C)cc(Nc2ccc3nc(C)cc(N)c3c2)n1 (racemic) [Rac-1 inhibitor]
- Part of the colony where deviated cells grew [1]: Deviated cells grew in the center part of a colony
- Part of the colony where deviated cells emerge [2]: allowed deviated cells to emerge in the center part of a colony
- Part of the colony where deviated cells emerge [3]: emerge in the center part of the colony
